Reference: patent US20170312681A1, “PROCESS AND APPARATUS FOR SEPARATING ENTRAINED AMINES FROM A GAS STREAM” (Carbonoro B.V., priority 2014, published 2017)

Experiment: amine content of the aqueous phase after heat-induced phase separation of an aqueous MCA/DMCA mixture
Conditions: 3 M MCA:DMCA 1:3 wt./wt. in water
Procedure: The phases were separated and the aqueous phase was analysed for determining the amine content.

In the case of CNC1CCCCC1 [MCA, N-methylcyclohexylamine], the “MCA in aqueous phase” value (heated 24 h at 40 ° C.) is reported as 6940 mg/L, the “MCA in aqueous phase” value (heated 24 h at 50 ° C.) is reported as 5630 mg/L and the “MCA in aqueous phase” value (heated 24 h at 60 ° C.) is reported as 5090 mg/L. The “MCA in aqueous phase” value (heated 24 h at 70 ° C.) was 4520 mg/L.
